Data as given in US6451330B1, “High skin friction cosmetic creams with retinoids” (Unilever Home & Personal Care, USA, division of Conopco, …, priority 2000, dated 2002).

Assay: Retinoid solubility in oil
Format: physicochemical
Protocol: Retinoid solubility in oil is determined by the following procedure. A known weight of pure retinoid in excess of the expected solubility limit in the oil is added in an oil and methanol is added to the mixture to dissolve all retinoid crystals. Nitrogen sparging is used to ensure all methanol has evaporated from the oil. Retinoid is allowed to recrystallize overnight. The sample is filtered through a 0.45 micron filter. Known dilutions of the filtrate in isopropanol are measured by UV spectroscopy at an appropriate wavelength (325 nm for retinol) and the concentration of retinoid determined against calibration standards of retinoid in isopropanol.

CC1=C(/C=C/C(C)=C/C=C/C(C)=C/CO)C(C)(C)CCC1 [retinol]
SOLUBILITY, WT % (retinol crystals in C12-15 Alkyl benzoate): 85 WT % | SOLUBILITY, WT % (retinol crystals in Cetiol OE): 45 WT % | SOLUBILITY, WT % (retinol crystals in Cyclomethicone): 2.7 WT % | SOLUBILITY, WT % (retinol crystals in Dimethicone): 0.49 WT % | SOLUBILITY, WT % (retinol crystals in Isostearyl palmitate): 44 WT % | SOLUBILITY, WT % (retinol crystals in Mineral oil): 34.2 WT % | SOLUBILITY, WT % (retinol crystals in Triolein/Squalene (6:1)): 56.4 WT %
